Experimental data taken from EP0184738A2, “Imidazole derivatives, medicaments containing these compounds, and process for their preparation” (Dr. Karl Thomae GmbH, priority 1984, dated 1986).

system: despinalisierten Meerschweinchen; assay: Determination of the positive inotropic effect in despinalised guinea pigs; type: in vivo; settings: 1 mg/kg i.v. (Vena jugularis), mean of 3 despinalised guinea pigs, left ventricular pressure
Description: Bestimmung der positiv inotropen Wirkung an despinalisierten Meerschweinchen
Die Untersuchungen wurden an despinalisierten Meerschweinchen durchgeführt. Die Tiere wurden mit 50 % 02 + 50 % N2 beatmet. Der arterielle Blutdruck wurde in der rechten Arteria Carotis mit einem Bell and Howell Druckwandler (4-327-I) gemessen. Für die Erfassung der positiv inotropen Wirkung wurde mit einem Kathetertipmanometer (Millar PR-249) der Druck in dem linken Ventrikel (LV) gemessen. Mittels eines Differenzierers wurde LV-dp/dtmax gewonnen. Die zu untersuchenden Substanzen wurden in eine Vena jugularis injiziert. Als Lösungsdmittel diente 0,9 % NaCl+Polydiol 200 (1:1).
Jede Substanz wurde an 3 Meerschweinchen überprüft. Die Dosen waren 0,1 - 3 mg/kg i.v.. Die nachfolgende Tabelle enthält die Mittelwerte bei 1 mg/kg i.v..
Die neuen Verbindungen sind gut verträglich, so konnte bei der Untersuchung der Substanzen A bis D bis zu einer Dosis von 3 mg/kg i.v. keinerlei herztoxische Wirkungen bzw. Kreislaufschäden beobachtet werden.

Row | Compound | Zunahme in LV-dp/dtmax
1 | CCCOc1cc2ccccc2cc1-c1nc2cnc(Cl)nc2[nH]1 [Substanz D, 2-Chlor-8-(3-n-propoxy-naphth-2-yl)-purin] | 27%
2 | O=c1[nH][nH]cc2nc(-c3ccc4ccccc4c3)nc1-2 [Substanz A, 2-(Naphth-2-yl)-5H-imidazo[4,5-d]pyridazin-4-on] | 28%
3 | O=c1ccc2[nH]c(-c3cc4ccccc4cc3Cl)nc2[nH]1 [Substanz B, 2-(3-Chlor-naphth-2-yl)-lH-imidazo[4,5-b]pyridin-5-on] | 30%
4 | COc1ncc2[nH]c(-c3ccc4ccccc4c3)nc2n1 [Substanz C, 2-Methoxy-8-(naphth-2-yl)-purin] | 33%
